In patent US20250099517A1, “Use of Lactobacillus reuteri Y7 strain for prevention or treatment of ocular diseases” (Taipei Medical University, priority 2023, published 2025):

System: Occludin, Claudin-1, ZO-1 gene expression
Assay: q-PCR of tight junction gene expression in eyes
Assay type: in vivo, C57BL/6 mice
Details: for gene expressions of Occludin compared with the LU group: p<0.05
Experimental: The C57BL/6 mice, which weighed between 23 and 25 g, were divided into seven groups randomly. In each group, the six mice induced by blue light successfully were incorporated in experiments. The samples dissolved in deuterium-depleted water (DDW) were fed to mice through oral tubes once a day. The groups were named and introduced as follows: • (1) Solvent not classified group (NC): The mice were fed with 0.2 ml deuterium-depleted water (DDW) through tubes; • (2) Negative control group (Blue light (BL)): The mice were fed with 0.2 ml deuterium-depleted water (DDW) through tubes and exposed to blue light; • (3) Low-dosage Y7 probiotics group […]): The mice were fed with low-dosage Y7 probiotics (probiotic counts of 1.0×10^8 CFU/ml dissolved in 0.2 ml DDW per day) and exposed to blue light; • (4) High-dosage Y7 probiotics group […]): The mice were fed with high-dosage Y7 probiotics (probiotic counts of 1.0×10^9 CFU/ml dissolved in 0.2 ml DDW per day) and exposed to blue light; • (5) Positive control group (lutein (LU)): The mice were fed with lutein and exposed to blue light. The recommended human dosage of lutein is 30 mg. The mouse cage (48×25×20 cm) placed inside a stainless ventilated box was equipped with blue light boards as blue light sources around and above. In the experiment of animals exposed to blue light, six-week-old mice staying in the mouse cage were fed with drinking water as well as fodders and exposed to 400 Lux blue light illumination under the light-dark cycle of 12-hour light and 12-hour dark. The experiment was aimed at causing mice' late dry macular disease induced by chronic light injuries for simulating a human being's macular disease after long-term exposure to short-wavelength blue light from 3C products in daily life. The eyes of a mouse sacrificed were collected for the following purposes. RNAs extracted with Trizol were reverse-transcribed to cDNAs. Then, the real-time quantitative polymerase chain reaction was enabled to detect gene expressions related to inflammatory hormones and apoptosis such as TNF-α, IL-1B, IL-6, Bax, Bcl-2, Caspase1, Caspase3 and NLRP3 for comparisons with the endogenous level of β-actin, GAPDH or 18S rRNA. [table] The gene expressions related to tight junctions of mice' eyes, buccal mucosas and colons after induction of blue light were analyzed through q-PCR and shown in FIG. 10a, FIG. 10d and FIG. 10g for Occludin, FIG. 10b, FIG. 10e and FIG. 10h for Claudin-1 and FIG. 10c, FIG. 10f and FIG. 10i for ZO-1, respectively.

In the case of “Lactobacillus reuteri Y7 [Y7 probiotics]”, the “gene expressions of Claudin-1 compared with the LU group” value (Y7H high-dosage group) is reported as “descending trend”, the “gene expressions of ZO-1 compared with the LU group” value (Y7H high-dosage group) is reported as “descending trend” and the “gene expressions of Occludin compared with the LU group” value (Y7H high-dosage group) is reported as “decreased significantly”. The “gene expressions of Claudin-1 compared with the LU group” value (Y7L low-dosage group) was “descending trend”, the “gene expressions of ZO-1 compared with the LU group” value (Y7L low-dosage group) was “descending trend” and the “gene expressions of Occludin compared with the LU group” value (Y7L low-dosage group) was “decreased significantly”.
